Source: patent US20260049089A1, “KRAS INHIBITOR COMPOUND” (SHANGHAI APEIRON THERAPEUTICS COMPANY LIMITED, priority 2022, published 2026)
Like-named read-outs stand apart in the source and are kept apart here.

What was measured:
pERK in AGS cells = experiment: ERK phosphorylation cell assay, AGS; format: cell-based; conditions: 3 hours compound incubation, read-out: pERK AGS_IC50
Procedure: (§1) • Day 1: AGS cells were seeded into a 384-well cell culture plate and incubated overnight at 37° C. with 5% CO2 in a cell culture incubator. • Day 2: Compounds were added to the plate using an Echo550 liquid handler, followed by incubation at 37° C. with 5% CO2 in a cell culture incubator for 3 hours. Subsequently, the cells were fixed with paraformaldehyde, permeabilized with methanol, and blocked with blocking buffer. A primary antibody mixture (rabbit anti-pERK, mouse anti-GAPDH) was added, and the plate was incubated overnight at 4° C. • Day 3: The primary antibodies were removed, and a secondary antibody mixture (goat anti-rabbit 800CW, goat anti-mouse 680RD) was added. The plate was incubated at room temperature in the dark. After three washes with PBST, the plate was inverted and centrifuged for 1 minute. Fluorescence signal values were read using an Odyssey CLx imaging system.
(§2) [formula] • Negative control: DMSO • Positive control: 10 μM Reference • Fitted using XLFit 5.0 with the following parameters:
(§3) [formula] • X: Log of compound concentration • Y: Mean relative expression levels of p-ERK across replicates

pERK in AsPC-1 cells = experiment: ERK phosphorylation cell assay, AsPC-1; format: cell-based; conditions: read-out: pERK AsPC-1_IC50
Procedure: [Worded in the source for another cell line; this cell line is reported under the same test.] as §1, §2, §3

[1] = Homo sapiens, ASPC1, AsPC-1 cells

IC50 (pERK in AGS cells)	IC50 (pERK in AsPC-1 cells; AsPC-1 cells)	IC50 (pERK in AsPC-1 cells; [1])	IC50 (pERK in AGS cells; Homo sapiens, AGS, 3 h)	Compound
517 nM	4.62 µM			C[C@@]1(O)CCCN(c2nc(OCC34CCCN3CCC4)nc3c(F)c4c(cc23)NCCCCCc2c(F)ccc3cc(O)cc-4c23)C1 (single isomer, unassigned) [Example 21B]
1920 nM	7.18 µM			C[C@@]1(O)CCCN(c2nc(OCC34CCCN3C[C@]3(C4)CC3(F)F)nc3c(F)c4c(cc23)NCCCCCc2c(F)ccc3cc(O)cc-4c23)C1 (single isomer, unassigned) [Example 24B]
2000 nM	3.1 µM			C[C@@]1(O)CCCN(c2nc(OC[C@@]34CCCN3C[C@H](F)C4)nc3c(F)c4c(cc23)NCCOCCc2c(F)ccc3cccc-4c23)C1 (single isomer, unassigned) [Example 52A]
1140 nM		> 10 µM		C=C1CN2CC(F)(F)CC2(COc2nc(N3CCC[C@@](C)(O)C3)c3cc4c(c(F)c3n2)-c2cc(O)cc3ccc(F)c(c23)CCCCCN4)C1 (single isomer, unassigned) [Example 57A]
> 10000 nM	> 10 µM			C=C1CN2CC(F)(F)CC2(COc2nc(N3CCC[C@@](C)(O)C3)c3cc4c(c(F)c3n2)-c2cc(O)cc3ccc(F)c(c23)CCCCCN4)C1 (single isomer, unassigned) [Example 57B]
		> 10 µM	> 10000 nM	C[C@@]1(O)CCCN(c2nc(OCC34CCC(CC3)CO4)nc3c(F)c4c(cc23)NCCCCCc2c(F)ccc3cc(O)cc-4c23)C1 [Example 18A]
> 10000 nM	> 10 µM			CC1(O)CCCN(c2nc(OCC34CCC(CC3)CO4)nc3c(F)c4c(cc23)NCCCCCc2c(F)ccc3cc(O)cc-4c23)C1 [Example 18B, (R)-13-(((2-oxabicyclo[2.2.2]octan-1-yl)methoxy)-3,15-difluoro-11-(3-hydroxy-3-methylpiperidin-1-yl)-4,5,6,7,8,9-hexahydro-naphtho[1′,8′:4,5,6][1]azacycloundecino[2,3-g]quinazoline-17-ol]
		> 10 µM	> 10000 nM	COC12CCC(COc3nc(N4CCC[C@@](C)(O)C4)c4cc5c(c(F)c4n3)-c3cc(O)cc4ccc(F)c(c34)CCCCCN5)(CC1)CC2 [Example 20A]

Further lines, the compound ahead of its results:

Compound	IC50 (pERK in AGS cells)	IC50 (pERK in AsPC-1 cells; AsPC-1 cells)	IC50 (pERK in AsPC-1 cells; [1])	IC50 (pERK in AGS cells; Homo sapiens, AGS, 3 h)
13-((2,2-difluoro-6-methylenetetrahydro-1H-pyrazin-7a(5H)-yl)methoxy)-3,15-difluoro-11-((R)-3-hydroxy-3-methylpiperidin-1-yl)-4,5,6,7,8,9-hexahydronaphtho[1′,8′:4,5,6][1]azacycloundecano[2,3-g]quinazolin-17-ol [Example 38]	> 10000 nM	> 10 µM		
C=C1CN2CCC[C@@]2(COc2nc(N3CCC[C@@](C)(O)C3)c3cc4c(c(F)c3n2)-c2cc(O)cc3ccc(F)c(c23)CCOCCN4)C1 (single isomer, unassigned) [Example 42C]		0.101 µM		
O=C1CCCc2c(F)ccc3cc(O)cc(c23)-c2c(cc3c(N4CC5CCC(C4)N5)nc(OC[C@@]45CCCN4C[C@H](F)C5)nc3c2F)N1 [Example 1, 10-((1R,5S)-3,8-Diazabicyclo[3.2.1]octan-3-yl)-3,14-difluoro-12-(((2R,7aS)-2-fluorotetrahydro-1H-pyrazin-7a(5H)-yl)methoxy)-16-hydroxy-5,6-dihydro-4H-naphtho[1′,8′:4,5,6]acridin[2,3-g]quinazolin-7(8H)-one]			2.45 µM	2150 nM
Oc1cc2c3c(c(F)ccc3c1)CCCCNc1cc3c(N4CC5CCC(C4)N5)nc(OC[C@@]45CCCN4C[C@H](F)C5)nc3c(F)c1-2 [Example 2, 10-((1R,5S)-3,8-Diazabicyclo[3.2.1]octan-3-yl)-3,14-difluoro-12-(((2R,7aS)-2-fluorotetrahydro-1H-pyrazin-7a(5H)-yl)methoxy)-5,6,7,8-tetrahydro-4H-naphtho[1′,8′:4,5,6]acridin[2,3-g]quinazolin-16-ol]			0.71 µM	154 nM
O=C1CCCCCc2c(F)ccc3cc(O)cc(c23)-c2c(cc3c(N4CC5CCC(C4)N5)nc(OC[C@@]45CCCN4C[C@H](F)C5)nc3c2F)N1 [Example 9A, 12-((1R,5S)-3,8-diazabicyclo[3.2.1]octan-3-yl)-3,16-difluoro-14-(((2R,7aS)-2-fluorotetrahydro-1H-pyrazin-7a(5H)-yl)methoxy)-18-hydroxy-5,6,7,8-tetrahydro-4H-naphtho[1′,8′:4,5,6][1]azacyclododecino[2,3-g]quinazolin-9(10H)-one]	687 nM	1.96 µM		
O=C1CCCCCCCCc2c(F)ccc3cc(O)cc(c23)-c2c(cc3c(N4CC5CCC(C4)N5)nc(OCC45CCCN4CC(F)C5)nc3c2F)N1 [Example 10, 15-((1R,5S)-3,8-diazabicyclo[3.2.1]octan-3-yl)-3,19-difluoro-17-(((2R,7aS)-2-fluorotetrahydro-1H-pyrazin-7a(5H)-yl)methoxy)-21-hydroxy-4,5,6,7,8,9,10,11-octahydronaphtho[1′,8′:4,5,6][1]azacyclopentadecano[2,3-g]quinazolin-12(13H)-one]	> 10000 nM	> 10 µM		
O=C1NCCCc2c(F)ccc3cc(O)cc(c23)-c2c1cc1c(N3CC4CCC(C3)N4)nc(OC[C@@]34CCCN3C[C@H](F)C4)nc1c2F [Example 12, 10-((1R,5S)-3,8-diazabicyclo[3.2.1]oct-3-yl)-3,14-difluoro-12-(((2R,7aS)-2-fluorotetrahydro-1H-pyrazin-7a(5H)-yl)methoxy)-16-hydroxy-4,5,6,7-tetrahydro-8H-naphtho[1′,8′:5,6,7]acredo [3,4-g]quinazolin-8-one]			> 10 µM	5430 nM
CCN1CCCc2c(F)ccc3cc(O)cc(c23)-c2c(cc3c(N4CC5CCC(C4)N5)nc(OC[C@@]45CCCN4C[C@H](F)C5)nc3c2F)C1=O [Example 13, 10-((1R,5S)-3,8-diazabicyclo[3.2.1]oct-3-yl)-7-ethyl-3,14-difluoro-12-(((2R,7aS)-2-fluorotetrahydro-1H-pyrazin-7a(5H)-yl)methoxy)-16-hydroxy-4,5,6,7-tetrahydro-8H-naphtho[1′,8′:5,6,7]acrylo[3,4-g]quinazolin-8-one]			8.04 µM	3950 nM
O=C1NCCCCCc2c(F)ccc3cc(O)cc(c23)-c2c1cc1c(N3CC4CCC(C3)N4)nc(OC[C@@]34CCCN3C[C@H](F)C4)nc1c2F [Example 14, 12-((1R,5S)-3,8-diazabicyclo[3.2.1]oct-3-yl)-3,16-difluoro-14-(((2R,7aS)-2-fluorotetrahydro-1H-pyrazin-7a(5H)-yl)methoxy)-18-hydroxy-4,5,6,7,8,9-hexahydro-10H-naphtho[1′,8′:5,6,7][1]azacyclododecano[3,4-g]quinazolin-10-one]			3.84 µM	2770 nM
O=C1CCCc2c(F)ccc3cc(O)cc(c23)-c2c(cc3c(N4CC5CCC(C4)N5)nc(OCC(F)(F)F)nc3c2F)N1 [Example 15, 10-((1R,5S)-3,8-diazabicyclo[3.2.1]octan-3-yl)-3,14-difluoro-16-hydroxy-12-(2,2,2-trifluoroethoxy)-5,6-dihydro-4H-naphtho[1′,8′:4,5,6]azacycloundecino[2,3-g]quinazolin-7(8H)-one]				> 10000 nM
C[C@@]1(O)CCCN(c2nc(OCC(F)(F)F)nc3c(F)c4c(cc23)NCCCCCc2c(F)ccc3cc(O)cc-4c23)C1 [Example 17A, (R)-3,15-difluoro-11-(3-hydroxy-3-methylpiperidin-1-yl)-13-(2,2,2-trifluoroethoxy)-4,5,6,7,8,9-hexahydro-naphtho[1′,8′:4,5,6111]azacycloundecino[2,3-g]quinazoline-17-ol]			> 10 µM	5270 nM
CC1(O)CCCN(c2nc(OCC(F)(F)F)nc3c(F)c4c(cc23)NCCCCCc2c(F)ccc3cc(O)cc-4c23)C1 [Example 17B, (R)-3,15-difluoro-11-(3-hydroxy-3-methylpiperidin-1-yl)-13-(2,2,2-trifluoroethoxy)-4,5,6,7,8,9-hexahydro-naphtho[1′,8′:4,5,6111]azacycloundecino[2,3-g]quinazoline-17-ol]	> 10000 nM	> 10 µM		
C[C@@]1(O)CCCN(c2nc(OCC34CCC(CC3)OC4)nc3c(F)c4c(cc23)NCCCCCc2c(F)ccc3cc(O)cc-4c23)C1 [Example 19]			> 10 µM	> 10000 nM
C[C@@]1(O)CCCN(c2nc(OCC34CCCN3CC(=C(F)F)C4)nc3c(F)c4c(cc23)NCCCCCc2c(F)ccc3cc(O)cc-4c23)C1 (stereo partly shown) [Example 29]			4.53 µM	5420 nM
C=C1CN2CC(=C)CC2(COc2nc(N3CCC[C@@](C)(O)C3)c3cc4c(c(F)c3n2)-c2cc(O)cc3ccc(F)c(c23)CCCCCN4)C1 [Example 31]			0.225 µM	136 nM
C=C1CN2CCCC2(COc2nc(N3CCC[C@@](C)(O)C3)c3cc4c(c(F)c3n2)-c2cc(O)cc3ccc(F)c(c23)CC/C=C\CN4)C1 (stereo partly drawn) [Example 32, (Z)-3,15-difluoro-11-((R)-3-hydroxy-3-methylpiperidin-1-yl)-13-((2-methylenetetrahydro-1H-pyrazin-7a(5H)-yl)methoxy)-4,5,8,9-tetrahydronaphtho[1′,8′:4,5,6][1]azacycloondecano[2,3-g]quinazolin-17-ol]			1.14 µM	652 nM
